“And” between values parts separate entries of the source, which are not always exact repeats. Equal entries are not always repeated.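 Cultured in 96-well plates, cells were exposed to test compound for 48 hours across five concentrations. The concentration for 50% growth inhibition is given as GI50. TGI marks complete inhibition of growth.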
What was measured:
Assay in all cases: NCI tumour cell line growth inhibition, 48 h
[1] = test system: LOX IMVI melanoma
[2] = test system: 786-0 renal
[3] = test system: RXF 393 renal
[4] = test system: UACC-257 melanoma
[5] = test system: OVCAR-4 ovarian
[6] = test system: KM12 colon
[7] = test system: OVCAR-8 ovarian
[8] = test system: CAKI-1 renal
[9] = test system: SK-MEL-2 melanoma
[10] = test system: BT-549 breast

SMILES	TGI [1] [µM]	TGI [2]	TGI [3] [µM]	TGI [4] [µM]	TGI [5] [µM]	TGI [6] [µM]	TGI [7] [µM]	TGI [8] [µM]	TGI [9] [µM]	GI50 [10] [µM]	TGI [10]	GI50 [1] [µM]	GI50 [2] [µM]	GI50 [3] [µM]	GI50 [4] [µM]	GI50 [6] [µM]	GI50 [9] [µM]	GI50 [7] [µM]	GI50 [8] [µM]	GI50 [5] [µM]
CN(C)C(=S)/N=c1\sn(C)/c(=N\C(=S)N(C)C)n1C	> 100	> 100 µM	> 100	> 100	> 100	> 100	> 100	> 100	–	–	–	–	–	–	–	–	–	–	–	–
CCCCCCCCCCCCCCCC(=O)OCCOCCOCCOCc1ccccc1	> 100	> 100 µM	> 100	> 100	> 100	> 100	> 100	> 100	> 100	–	–	–	–	–	–	–	–	–	–	–
Clc1cc2c(c(CSc3nc4ccccc4n4cccc34)c1)OCOC2	> 100	> 100 µM	61.9	> 100	–	> 100	> 100	> 100	44.9	78.1	> 100 µM	> 100	51.6	15.2	> 100	> 100	13.6	20.6	> 100	–
C#CC1/C(=C\C(=O)OC)CCCC1O (stereo not given)	–	> 100 µM	> 100	> 100	> 100	> 100	> 100	> 100	> 100	–	–	–	–	–	–	–	–	–	–	–
CN1CCN(c2ccc(Nc3cc(-c4cccc(-n5ccc6cc(C7CC7)cc(F)c6c5=O)c4CO)cn(C)c3=O)nc2)CC1	12.7	4.44 µM	5.37	5.03	–	31.1	29.7	10.8	35.1	–	–	3.4	2.01	1.9	2.28	6.16	15	4.84	2.66	–
COCC(OC)C(CC=C(C#N)C#N)OC (stereo not given)	> 100	> 100 µM	–	> 100	> 100	> 100	> 100	> 100	> 100	–	–	–	–	–	–	–	–	–	–	–
CC(C)C1=Cc2ccc3c(c2C(=O)C1=O)CCCC3(C)C	24.7	10.5 µM	3.86	8.64	3.48	33.1	10	6.69	34.6	–	–	–	–	–	–	–	–	–	–	–
C/C(N=NC(=S)N1CC2CCC(CC2)C1)=C1\C=CC=CN1O	> 50.7	> 100 µM	69.3	35.2	> 100	> 31.6	> 100	> 100	> 100	–	–	–	–	–	–	–	–	–	–	–
Nc1ncn([C@@H]2O[C@H](CO)[C@@H](O)[C@H]2O)c(=O)n1	2.1	13.8 µM	4.64	–	–	–	> 100	3.25	3.83	–	–	0.292	0.687	0.346	–	–	0.612	0.766	0.275	–
O=C1N=C2Sc3ccc4ccccc4c3N2C1=O	38.2	36.1 µM	37	96.8	32.7	> 100	34	46.2	71.9	–	–	–	–	–	–	–	–	–	–	–
N#CC(C(=O)/C(=N\NC(N)=O)C(C#N)c1ccc(Cl)cc1)c1ccc(Cl)cc1 (stereo not given)	> 100	> 100 µM	> 100	> 100	> 100	> 100	> 100	–	> 100	–	–	–	–	–	–	–	–	–	–	–
CCC(C)(C)c1ccc(OCCCCNC(=O)c2ccc3ccccc3c2O)c(C(C)(C)CC)c1	–	93.5 µM	–	> 100	> 100	> 100	> 100	> 100	62	–	82.5 µM	–	–	–	–	–	–	–	–	–
COC1C(OC(=S)Nc2ccccc2)c2ccccc2N1C(C)=O (stereo not given)	–	> 100 µM	> 100	> 100	> 100	> 100	> 100	> 100	> 100	–	–	–	–	–	–	–	–	–	–	–
COc1ccc(CCN(C)C2CCC(C#N)(c3ccc(OC)c(OC)c3)CC2)cc1OC (stereo not given)	> 100	> 100 µM	> 100	> 100	> 100	> 100	> 100	–	> 100	–	–	–	–	–	–	–	–	–	–	–
C=CCCCCC1CCC2CCC(CCCCC=C)N12 (stereo not given)	–	26.9 µM	–	29.3	26.3	29.6	33.1	84.8	22.9	–	–	–	–	–	–	–	–	–	–	–
COC(=O)/C(=N\NC(N)=S)C(C(=O)OC)C(=O)C(=O)Nc1ccc(C)cc1 (stereo not given)	> 100	> 100 µM	> 100	> 100	> 100	> 100	> 100	> 100	> 100	–	–	–	–	–	–	–	–	–	–	–
CC(C)(C)c1cc(C(P(=O)(O)O)P(=O)(O)O)cc(C(C)(C)C)c1O	> 100	> 100 µM	–	> 100	> 100	> 100	> 100	> 100	> 100	–	–	–	–	–	–	–	–	–	–	–
COc1ccc(OCC(=O)O)c2c1CCCC2=O	> 100	> 100 µM	> 100	> 100	> 100	> 100	> 100	–	> 100	–	–	–	–	–	–	–	–	–	–	–
O=C(OC1CCC(=C2SCCCS2)[C@H]1C1SCCCS1)c1ccccc1 (stereo not given in full)	> 100	> 100 µM	> 100	> 100	> 100	> 100	> 100	–	> 100	–	–	–	–	–	–	–	–	–	–	–
Cc1ccc2nc(/C(=C/c3ccc(/C=C(\NC(=O)c4ccccc4)c4nc5ccc(C)cc5[nH]4)c(C)c3)NC(=O)c3ccccc3)[nH]c2c1	–	60.4 µM	–	–	–	37.5	81.8	91.3	33.3	–	–	–	–	–	–	–	–	–	–	–
O=[N+]([O-])c1ccc2occ3c2c1CCC3	> 100	> 100 µM	> 100	> 100	> 100	> 100	> 100	–	> 100	–	–	–	–	–	–	–	–	–	–	–
COc1c(O)c2c(=O)cc3c4c5c(cc(=O)c6c(O)c(OC)c(CC(C)O)c(c(c1CC(C)O)c24)c65)OCO3 (stereo not given)	2.28	11.1 µM	4.03	2.78	2.74	4.09	5.15	24.3	3.57	–	–	–	–	–	–	–	–	–	–	–

SMILES	TGI [1] [µM]	TGI [2]	TGI [3] [µM]	TGI [4] [µM]	TGI [5] [µM]	TGI [6] [µM]	TGI [7] [µM]	TGI [8] [µM]	TGI [9] [µM]	GI50 [10] [µM]	TGI [10]	GI50 [1] [µM]	GI50 [2] [µM]	GI50 [3] [µM]	GI50 [4] [µM]	GI50 [6] [µM]	GI50 [9] [µM]	GI50 [7] [µM]	GI50 [8] [µM]	GI50 [5] [µM]
O=C(/C(=C/c1ccc(Cl)cc1)c1ccccc1)c1ccccc1	29	56.4 µM	–	29	66.9	30.5	50.7	–	36.6	–	–	–	–	–	–	–	–	–	–	–
COC(=O)/C(=C/c1ccc(OC)cc1)C(C(=O)O)=C1CCCC1	> 100	> 100 µM	> 100	> 100	> 100	> 100	> 100	> 100	> 100	–	–	–	–	–	–	–	–	–	–	–
COc1ccc2c(c1OCC(=O)O)C(=O)C(CCC(=O)O)CC2 (stereo not given)	> 100	> 100 µM	> 100	> 100	> 100	–	> 100	> 100	–	–	–	–	–	–	–	–	–	–	–	–
C=CCC1(c2ccc(OC)cc2)C=CC(=O)CC1 (stereo not given)	> 100	> 100 µM	> 100	> 100	> 100	> 100	> 100	> 100	–	–	> 100 µM	–	–	–	–	–	–	–	–	–
NC(N)=NCCCC(=O)O	> 100	> 100 µM	> 100	–	> 100	> 100	> 100	> 100	> 100	–	> 100 µM	–	–	–	–	–	–	–	–	–
COc1ccc(-c2nnc3n(C)c(=O)c4ccccc4n23)cc1N	> 100	> 100 µM	> 100	–	> 100	> 100	> 100	> 100	–	> 100	> 100 µM	3.01	3.72	2.59	–	0.0499	–	4.94	1.95	16.3
CC1(C)COC(c2cccc3c2C(=O)c2cccc(Cl)c2-3)=N1	> 100	> 100 µM	68.2	> 100	> 100	> 100	> 100	> 100	> 100	–	–	–	–	–	–	–	–	–	–	–
NC1CCN(Cc2ccccc2)CC1	> 100	> 100 µM	> 100	> 100	> 100	> 100	> 100	> 100	> 100	–	–	> 100	> 100	8.22	> 100	> 100	> 100	> 100	> 100	> 100
CC12CCC(=O)C[C@H]1CCC(OC=O)C2Br (stereo not given in full)	> 100	> 100 µM	–	> 100	> 100	> 100	> 100	> 100	> 100	–	–	–	–	–	–	–	–	–	–	–
N#Cc1nn(-c2cc(=O)[nH]c3ccc(Cl)cc23)c(N)c1C#N	> 100	> 100 µM	–	> 100	> 100	> 100	> 100	> 100	> 100	> 100	> 100 µM	> 100	> 100	–	> 100	> 100	> 100	> 100	> 100	8.63
COC(=O)C1CCCC2(C1)OCCO2 (stereo not given)	> 100	> 100 µM	> 100	> 100	> 100	> 100	> 100	> 100	> 100	–	–	–	–	–	–	–	–	–	–	–
C/C(CC(=O)Nc1ccc(C)c(C)c1)=N\N(c1ccccc1)c1ccccc1	> 100	> 100 µM	> 100	> 100	> 100	> 100	> 100	> 100	> 100	–	–	–	–	–	–	–	–	–	–	–
CN1C(=O)c2ccccc2NC(=O)C12O[C@@H]2c1ccccc1 (stereo not given in full)	> 100	> 100 µM	–	> 100	> 100	> 100	> 100	> 100	> 100	–	> 100 µM	–	–	–	–	–	–	–	–	–
CC(=O)Nc1ccc(-c2csc(Nc3cccc(-c4csc(C)n4)c3)n2)cc1	10.1	18.2 µM	> 12.9	21.5	–	6.07	20.8	8.75	> 27.3	8.34	44.6 µM	0.375	2.03	2.01	4.63	0.404	8.03	2.44	1.61	–
COC(=O)/C(C#N)=C1\N=NNN1c1ccc(OC)cc1	> 100	> 100 µM	> 100	> 100	–	> 100	> 100	> 100	–	–	–	–	–	–	–	–	–	–	–	–
CCOC(=O)N[C@H]1CCc2cc(OC)c(OC)c(OC)c2-c2ccc(SC)c(=O)cc21	> 100	45.7 µM and > 100 µM	> 100	> 100	> 100	–	> 100	–	–	–	33.2 µM and > 32.5 µM	–	–	–	> 70.5	–	0.345	–	< 0.0182	0.0677
CCOC(=O)c1nc2c(OC)nn(O)cc-2c1[N+](=O)[O-]	30	30.7 µM	29.3	33.5	34.9	28.2	36.4	–	34.9	–	–	–	–	–	–	–	–	–	–	–
Cc1nc(Nc2ccc(Cl)cc2)sc1C(=O)NNC(=S)NN	29.5	30.2 µM	27.6	27.3	32.7	42.3	43.7	44.8	33.4	–	–	–	–	–	–	–	–	–	–	–
O=C(Nc1cccc(Cl)c1)C(=O)C(C(=O)c1ccc2ccccc2c1)C1OC(=O)c2ccccc21 (stereo not given)	44.5	22.9 µM	–	55.5	33	60.3	68.9	67.6	32.5	–	–	–	–	–	–	–	–	–	–	–
Cc1ccc(C)c(NC(=O)c2cccc([N+](=O)[O-])c2O)c1	53.5	> 100 µM	37.8	63	80.8	61.5	> 100	> 100	–	–	–	–	–	–	–	–	–	–	–	–
Cc1cc2c(=O)c3ccccc3[nH]c2c(C(N)=O)c1C	> 100	> 100 µM	> 100	> 100	> 100	> 100	> 100	> 100	> 100	–	–	–	–	–	–	–	–	–	–	–

Source: PubChem BioAssay (NCI)
